Experimental data taken from patent US20180214393A1, “METHODS FOR TREATING CANCER” (RADIUS PHARMACEUTICALS, INC., priority 2015, published 2018).
Structures can show the parent of a compound that is named as a salt.

Experiment: Phase 1 dose escalation study in healthy postmenopausal women, treatment related AEs, oral daily for 7 days
Type: in vivo
Protocol: The subjects were 40-75 years old with BMI of 18.0-30 kg/m^2. Subjects having evidence of clinically relevant pathology, increased risk of stroke or of history venous thromboembolic events, or use of concomitant medication less than 14 days prior to admission to clinical research center (paracetamol allowed up to 3 days prior) were excluded.
The subjects were treated with placebo or at least one oral dose daily after a light breakfast for 7 days at dose levels of 200 mg, 500 mg, 750 mg and 1000 mg, respectively.

## CCNCCc1ccc(CN(CC)c2cc(OC)ccc2[C@@H]2CCc3cc(O)ccc3C2)cc1 [RAD1901, (6R)-6-(2-(N-(4-(2-(ethylamino)ethyl)benzyl)-N-ethylamino)-4-methoxyphenyl)-5,6,7,8-tetrahydronaphthalen-2-ol dihydrochloride]
200 mg Gr1
  Abdominal discomfort AE, %: (20) %
  Abdominal distension AE, %: (7) %
  Abdominal pain AE, %: (13) %
  Dizziness AE, %: (7) %
  Dyspepsia AE, %: (20) %
  Flatulance AE, %: (13) %
  Headache AE, %: (20) %
  Hiccups AE, %: (7) %
  Hot flush AE, %: (13) %
  Myalgia AE, %: (13) %
  Nausea AE, %: (33) %
  Odynophagia AE, %: (13) %
  Salivary hyper-secretion AE, %: (13) %
  Sensation of a foreign body AE, %: (13) %
  Vomiting AE, %: (13) %
200 mg Gr2
  Abdominal distension AE, %: (7) %
  Abdominal pain AE, %: (13) %
  Myalgia AE, %: (7) %
  Oesophageal pain AE, %: (13) %
500 mg Gr1
  Abdominal distension AE, %: (7) %
  Abdominal pain AE, %: (21) %
  Diarrhoea AE, %: (21) %
  Dizziness AE, %: (14) %
  Dyspepsia AE, %: (36) %
  Dysphagia AE, %: (7) %
  Flatulance AE, %: (14) %
  Headache AE, %: (7) %
  Hiccups AE, %: (29) %
  Hot flush AE, %: (43) %
  Nausea AE, %: (21) %
  Odynophagia AE, %: (7) %
  Oesophageal pain AE, %: (7) %
  Salivary hyper-secretion AE, %: (14) %
  Sensation of a foreign body AE, %: (7) %
  Vomiting AE, %: (7) %
500 mg Gr2
  Dyspepsia AE, %: (14) %
  Dysphagia AE, %: (14) %
  Headache AE, %: (7) %
  Myalgia AE, %: (7) %
  Nausea AE, %: (14) %
  Odynophagia AE, %: (7) %
  Oesophageal pain AE, %: (21) %
  Vomiting AE, %: (36) %
500 mg Gr3
  Vomiting AE, %: (7) %
750 mg Gr1
  Abdominal discomfort AE, %: (13) %
  Abdominal distension AE, %: (13) %
  Abdominal pain AE, %: (13) %
  Dizziness AE, %: (13) %
  Dyspepsia AE, %: (50) %
  Dysphagia AE, %: (38) %
  Flatulance AE, %: (13) %
  Headache AE, %: (38) %
  Hiccups AE, %: (25) %
  Hot flush AE, %: (25) %
  Myalgia AE, %: (13) %
  Nausea AE, %: (25) %
  Oesophageal pain AE, %: (13) %
  Salivary hyper-secretion AE, %: (25) %
750 mg Gr2
  Abdominal discomfort AE, %: (13) %
  Dysphagia AE, %: (13) %
  Nausea AE, %: (13) %
  Vomiting AE, %: (25) %
1000 mg Gr1
  Abdominal distension AE, %: (29) %
  Abdominal pain AE, %: (14) %
  Diarrhoea AE, %: (43) %
  Dizziness AE, %: (14) %
  Dyspepsia AE, %: (14) %
  Headache AE, %: (29) %
  Hiccups AE, %: (29) %
  Hot flush AE, %: (14) %
  Nausea AE, %: (57) %
  Odynophagia AE, %: (14) %
  Oesophageal pain AE, %: (14) %
  Salivary hyper-secretion AE, %: (29) %
  Sensation of a foreign body AE, %: (57) %
1000 mg Gr2
  Abdominal pain AE, %: (14) %
  Diarrhoea AE, %: (14) %
  Dyspepsia AE, %: (14) %
  Nausea AE, %: (29) %
  Odynophagia AE, %: (14) %
  Oesophageal pain AE, %: (14) %
  Vomiting AE, %: (43) %
